Test results published in patent publication US9963674B2, “Age-modified cells and methods for making age-modified cells” (Memorial Sloan-Kettering Cancer Center, priority 2013, dated 2018).

Key:
iPSC-derived mDA neurons = assay: mDA neuron marker expression (NURR1, TH) as sign of acute toxicity; format: cell-based, human; conditions: treatment of mDA neurons
Protocol: Cells were fixed in 4% paraformaldehyde for 15 minutes. Blocking was performed in phosphate-buffered saline supplemented with 1% BSA, and 0.3% Triton X-100 for 30 minutes to 1 hour. Cells were stained overnight at 4° C. with primary antibodies diluted in blocking buffer. Following several washes, cells were stained with appropriate Alexa Fluor-labeled secondary antibodies (Molecular Probes, Carlsbad, Calif.) at 1:500 in blocking buffer for 30 minutes to 3 hours at room temperature. Cells were counterstained with 4′,6-diamidino-2-phenylindole (DAPI; Thermo Fisher, Rockford, Ill.) to visualize nuclei. Images were acquired with an Olympus IX81 microscope using a Hamamatsu ORCA CCD camera.
Cells were collected with a cell lifter (Corning, Tewksbury, Mass.) in ice-cold phosphate-buffered saline without calcium or magnesium (PBS−/−). Cell pellets were rapidly frozen on ethanol and dry ice and stored at −80° C. Cell pellets were thawed on ice and resuspended in 50-200 μl RIPA lysis buffer (50 mM Tris-HCl pH 8.0, 120 mM NaCl, 6 mM EDTA, 0.5% NP-40) with 1% sodium dodecyl sulfate (SDS). Cell suspensions were vortexed at 15-minute intervals during a 45-minute incubation on ice. Lysates were isolated following a 10,000 rpm spin for 10 minutes at 4° C. 20-40 μg samples were further diluted with 4× Laemmli sample buffer, boiled for 5 minutes at 95° C., and loaded onto a NuPAGE 4-12% Bis-Tris precast gel (Life Technologies). Gel electrophoresis was performed at 100 V for 2 hours. Gels were transferred to a methanol activated PVDF membrane using the XCell II Blot Module (Life Technologies) according to the manufacturer's instructions. Blots were blocked in 3% bovine serum albumin (BSA) in Tris buffered saline plus 0.1% Tween-20 (TBS-T) for 45 minutes at room temperature. […]
Following several washes with TBS-T, blots were incubated in appropriate HRP-labeled secondary antibodies (Jackson ImmunoResearch, West Grove, Pa.) for 1 hour at room temperature. […] Densitometry quantification was performed using ImageJ on blots from three independent experiments.

[1] = tested on: proliferating cells in iPSC-derived mDA neuron cultures; assay: Mitomycin C treatment of iPSC-derived mDA neuron cultures; format: cell-based, human; conditions: 1 day following the final day 30 replating
Protocol: One to two days after plating, cells were treated with 1 μg/ml mitomycin C (Tocris) for 1 hour to kill any remaining proliferating contaminants. iPSC-derived mDA neurons were fed every 2 to 3 days and maintained without passaging until the desired timepoint for a given experiment. PO, laminin and fibronectin were added to the medium every 7-10 days to prevent neurons from lifting off.

[2] = tested on: doxycycline (dox)-inducible fibroblast line; assay: Reversibility of progerin-induced nuclear changes in doxycycline-inducible fibroblast line; format: cell-based; conditions: following re-addition of doxycycline
motor neurons (MNs) = conditions: after trophic factor withdrawal (Yang et al.); cited from earlier work

In the case of `N#CC(C#N)=NNc1cccc(Cl)c1` [CCCP, carbonyl cyanide 3-chlorophenylhydrazone, reference compound], the “mDA neuron marker expression after mitochondrial toxin” value (iPSC-derived mDA neurons) is reported as “rapidly induces mDA neuron marker loss”.

With `CO[C@@]12[C@H](COC(N)=O)C3=C(C(=O)C(C)=C(N)C3=O)N1C[C@@H]1N[C@@H]12` [Mitomycin C, mitomycin C] the post-mitotic neurons [1] was “unaffected” and the remaining proliferating cells [1] was “helped to eliminate the remaining proliferating cells”.

For `C[C@H]1c2cccc(O)c2C(=O)C2=C(O)[C@]3(O)C(=O)C(C(N)=O)=C(O)[C@@H](N(C)C)[C@@H]3[C@@H](O)[C@@H]21` [doxycycline], the “time to reversal of progerin-induced changes in nuclear morphology” value [2] was at most 10 days.

For `O=C1Cc2c([nH]c3ccc(Br)cc23)-c2ccccc2N1` [kenpaullone], the “survival of MNs” value (motor neurons (MNs)) is given as “impressive ability to prolong the healthy survival of MNs”.
